Results as given in PubChem BioAssay (NCI).
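Following 48 hours of exposure in 96-well plates, responses at five concentrations were used to interpolate endpoints linearly. GI50 = concentration required for 50% inhibition of growth. TGI denotes the concentration required for complete inhibition of growth.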

Experiments:
Experiment in all cases: inhibition of tumour cell growth, NCI panel, 48 h
786-0 renal = test system: 786-0 renal
A498 renal = test system: A498 renal
A549 NSCLC = test system: A549 NSCLC
ACHN renal = test system: ACHN renal
BT-549 breast = test system: BT-549 breast
CCRF-CEM leukemia = test system: CCRF-CEM leukemia
COLO 205 colon = test system: COLO 205 colon
DU-145 prostate = test system: DU-145 prostate
EKVX NSCLC = test system: EKVX NSCLC
HCC-2998 colon = test system: HCC-2998 colon
HCT-116 colon = test system: HCT-116 colon
HCT-15 colon = test system: HCT-15 colon
HL-60(TB) leukemia = test system: HL-60(TB) leukemia
HOP-62 NSCLC = test system: HOP-62 NSCLC
HOP-92 NSCLC = test system: HOP-92 NSCLC
HS 578T breast = test system: HS 578T breast
HT29 colon = test system: HT29 colon
IGROV1 ovarian = test system: IGROV1 ovarian
KM12 colon = test system: KM12 colon
LOX IMVI melanoma = test system: LOX IMVI melanoma
M14 melanoma = test system: M14 melanoma
MALME-3M melanoma = test system: MALME-3M melanoma
MCF7 breast = test system: MCF7 breast
MDA-MB-231 breast = test system: MDA-MB-231 breast
MDA-MB-435 = test system: MDA-MB-435
MOLT-4 leukemia = test system: MOLT-4 leukemia
NCI-H226 lung = test system: NCI-H226 lung
NCI-H23 lung = test system: NCI-H23 lung
NCI-H460 lung = test system: NCI-H460 lung
NCI-H522 lung = test system: NCI-H522 lung
NCI/ADR-RES ovarian = test system: NCI/ADR-RES ovarian
OVCAR-3 ovarian = test system: OVCAR-3 ovarian
OVCAR-4 ovarian = test system: OVCAR-4 ovarian
OVCAR-5 ovarian = test system: OVCAR-5 ovarian
OVCAR-8 ovarian = test system: OVCAR-8 ovarian
PC-3 prostate = test system: PC-3 prostate
RPMI-8226 leukemia = test system: RPMI-8226 leukemia
RXF 393 renal = test system: RXF 393 renal
SF-268 CNS = test system: SF-268 CNS
SF-295 CNS = test system: SF-295 CNS
SF-539 CNS = test system: SF-539 CNS
SK-MEL-2 melanoma = test system: SK-MEL-2 melanoma
SK-MEL-28 melanoma = test system: SK-MEL-28 melanoma
SK-MEL-5 melanoma = test system: SK-MEL-5 melanoma
SK-OV-3 ovarian = test system: SK-OV-3 ovarian
SN12C renal = test system: SN12C renal
SNB-19 CNS = test system: SNB-19 CNS
SNB-75 CNS = test system: SNB-75 CNS
SR leukemia = test system: SR leukemia
SW-620 colon = test system: SW-620 colon
T-47D breast = test system: T-47D breast
TK-10 renal = test system: TK-10 renal
U251 CNS = test system: U251 CNS
UACC-257 melanoma = test system: UACC-257 melanoma
UACC-62 melanoma = test system: UACC-62 melanoma
UO-31 renal = test system: UO-31 renal

`COc1ccc(C(=O)/C=C/c2ccc(OCc3ccc(Cl)cc3)cc2)cc1OC` showed a GI50 (786-0 renal) of 71.2 µM, a TGI (786-0 renal) of 470 µM and a GI50 (A498 renal) of 141 µM. The TGI (A498 renal) was 604 µM, the GI50 (A549 NSCLC) was 77.1 µM and the TGI (A549 NSCLC) was > 1000 µM. For the same compound, the GI50 (ACHN renal) was 57.9 µM, the TGI (ACHN renal) was > 1000 µM and the GI50 (BT-549 breast) was 81.8 µM. The TGI (BT-549 breast) was 586 µM, the GI50 (CCRF-CEM leukemia) was 190 µM and the TGI (CCRF-CEM leukemia) was > 1000 µM. The GI50 (COLO 205 colon) was 253 µM, the TGI (COLO 205 colon) was > 1000 µM and the GI50 (DU-145 prostate) was 202 µM. For the same compound, the TGI (DU-145 prostate) was > 1000 µM, the GI50 (EKVX NSCLC) was 66.4 µM and the TGI (EKVX NSCLC) was > 1000 µM. For the same compound, the GI50 (HCC-2998 colon) was 960 µM, the TGI (HCC-2998 colon) was > 1000 µM and the GI50 (HCT-116 colon) was 40.8 µM. For the same compound, the TGI (HCT-116 colon) was > 1000 µM, the GI50 (HCT-15 colon) was 112 µM and the TGI (HCT-15 colon) was > 1000 µM. It also gave a GI50 (HL-60(TB) leukemia) of 65 µM, a TGI (HL-60(TB) leukemia) of 296 µM and a GI50 (HOP-62 NSCLC) of 110 µM. The TGI (HOP-62 NSCLC) was 419 µM, the GI50 (HOP-92 NSCLC) was 44.5 µM and the TGI (HOP-92 NSCLC) was 365 µM. The GI50 (HS 578T breast) was 108 µM, the TGI (HS 578T breast) was > 1000 µM and the GI50 (HT29 colon) was 163 µM. The TGI (HT29 colon) was > 1000 µM, the GI50 (IGROV1 ovarian) was 118 µM and the TGI (IGROV1 ovarian) was > 1000 µM. The GI50 (KM12 colon) was 171 µM, the TGI (KM12 colon) was > 1000 µM and the GI50 (LOX IMVI melanoma) was 91.3 µM. The TGI (LOX IMVI melanoma) was > 1000 µM, the GI50 (M14 melanoma) was 150 µM and the TGI (M14 melanoma) was > 1000 µM. For the same compound, the GI50 (MALME-3M melanoma) was 176 µM, the TGI (MALME-3M melanoma) was 639 µM and the GI50 (MCF7 breast) was 47.4 µM. The TGI (MCF7 breast) was > 1000 µM, the GI50 (MDA-MB-231 breast) was 94.6 µM and the TGI (MDA-MB-231 breast) was > 1000 µM. The GI50 (MDA-MB-435) was 150 µM, the TGI (MDA-MB-435) was > 1000 µM and the GI50 (MOLT-4 leukemia) was 276 µM. The TGI (MOLT-4 leukemia) was > 1000 µM, the GI50 (NCI-H226 lung) was 63.1 µM and the TGI (NCI-H226 lung) was 635 µM. For the same compound, the GI50 (NCI-H23 lung) was 172 µM, the TGI (NCI-H23 lung) was > 1000 µM and the GI50 (NCI-H460 lung) was 68.6 µM. For the same compound, the TGI (NCI-H460 lung) was > 1000 µM, the GI50 (NCI-H522 lung) was 88.4 µM and the TGI (NCI-H522 lung) was 351 µM. For the same compound, the GI50 (NCI/ADR-RES ovarian) was 109 µM, the TGI (NCI/ADR-RES ovarian) was > 1000 µM and the GI50 (OVCAR-3 ovarian) was 55.6 µM. It also gave a TGI (OVCAR-3 ovarian) of 230 µM, a GI50 (OVCAR-4 ovarian) of 44.2 µM and a TGI (OVCAR-4 ovarian) of 372 µM. For the same compound, the GI50 (OVCAR-5 ovarian) was 499 µM, the TGI (OVCAR-5 ovarian) was > 1000 µM and the GI50 (OVCAR-8 ovarian) was 54.8 µM. The TGI (OVCAR-8 ovarian) was 633 µM, the GI50 (PC-3 prostate) was 57.6 µM and the TGI (PC-3 prostate) was 435 µM. The GI50 (RPMI-8226 leukemia) was 98.4 µM, the TGI (RPMI-8226 leukemia) was 773 µM and the GI50 (RXF 393 renal) was 90.6 µM. The TGI (RXF 393 renal) was 502 µM, the GI50 (SF-268 CNS) was 159 µM and the TGI (SF-268 CNS) was > 1000 µM. The GI50 (SF-295 CNS) was 189 µM, the TGI (SF-295 CNS) was > 1000 µM and the GI50 (SF-539 CNS) was 159 µM. For the same compound, the TGI (SF-539 CNS) was > 1000 µM, the GI50 (SK-MEL-2 melanoma) was 252 µM and the TGI (SK-MEL-2 melanoma) was > 1000 µM. The GI50 (SK-MEL-28 melanoma) was 366 µM, the TGI (SK-MEL-28 melanoma) was > 1000 µM and the GI50 (SK-MEL-5 melanoma) was 64.3 µM. The TGI (SK-MEL-5 melanoma) was 264 µM, the GI50 (SK-OV-3 ovarian) was 142 µM and the TGI (SK-OV-3 ovarian) was 607 µM. For the same compound, the GI50 (SN12C renal) was 221 µM, the TGI (SN12C renal) was > 1000 µM and the GI50 (SNB-19 CNS) was 42.7 µM. For the same compound, the TGI (SNB-19 CNS) was 206 µM, the GI50 (SNB-75 CNS) was 111 µM and the TGI (SNB-75 CNS) was 484 µM. The GI50 (SR leukemia) was 148 µM, the TGI (SR leukemia) was > 1000 µM and the GI50 (SW-620 colon) was 196 µM. For the same compound, the TGI (SW-620 colon) was > 1000 µM, the GI50 (T-47D breast) was 71.9 µM and the TGI (T-47D breast) was > 1000 µM. For the same compound, the GI50 (TK-10 renal) was 396 µM, the TGI (TK-10 renal) was > 1000 µM and the GI50 (U251 CNS) was 58.8 µM. For the same compound, the TGI (U251 CNS) was 314 µM, the GI50 (UACC-257 melanoma) was 244 µM and the TGI (UACC-257 melanoma) was > 1000 µM. It also gave a GI50 (UACC-62 melanoma) of 76.8 µM, a TGI (UACC-62 melanoma) of 376 µM and a GI50 (UO-31 renal) of 190 µM. The TGI (UO-31 renal) was > 1000 µM.
